Experimental data as given in patent US12187672B2, “1,2-diacylglycerol compound, preparation method therefor, and immunomodulator containing same as active ingredient” (ENZYCHEM LIFESCIENCES CORPORATION, priority 2018, dated 2025).

Key:
HL-60 cells = experiment: Migration of HL-60 cell line toward THP-1 culture supernatant (transmigration assay); format: cell-based, human; settings: supernatant of THP-1 cells treated with sample 100 μg/ml 1 h, then Gemcitabine 2 μg/ml 24 h
Description: In RPMI (Hyclone, Thermo Scientific) medium to which 10% Fetal Bovine Serum was added, THP-1 cells, a human macrophage family, were subcultured at a concentration of 1×10^5 cells/ml, and culture was conducted in a 5% CO2 humidified incubator at 37° C. In order to prepare the THP-1 cell culture solution to be treated in the lower well during the transmigration assay, first, the cultured THP-1 cells were inoculated into a 12 well plate by 1×10^6 cells/ml and stabilized for 30 minutes. Then, the culture solution was treated with a glycerol derivative compounds of the type shown in Table 7 below for 1 hour and then was treated with Gemcitabine (2 μg/ml) of a cell stimulator, and subsequent further incubation was conducted for 24 hours. Thereafter 1.5 ml of the culture supernatant was collected for each well and centrifuged (at 3000 rpm, 5 minutes) to recover the supernatant. The CXCL8 (IL-8) level in the recovered supernatant was measured according to the manual provided by Cultrex 96 well Laminin Cell Invasion assay. The day before Transmigration assay was carried out, a 1× Lamin I solution was treated in the upper Invasion Chamber and coated. Thereafter, in RPMI (Hyclone, Thermo Scientific) medium to which 10% Fetal Bovine Serum was added, the cultured HL-60 cells were despensed of 5×10^4 cells/chamber, and 150 μl of the THP-1 culture supernatant prepared in advance was added to the lower chamber. Thereafter the upper chamber was removed, and the cells were attached to the bottom of the lower chamber by a centrifuge, and then the supernatant was removed. Cell dissociation/Calcein-AM solution was added and reacted for 1 hour. Then, the value obtained using a fluorescence spectroscopy was calculated by converting the number of cells.

STAT3 = experiment: IL-6-induced STAT3 activity, SEAP expression in HEK-Blue IL-6 cells; format: cell-based; settings: HEK-Blue IL-6 cells; for decrease of STAT3 activity compared to the IL-6 cytokine-treated group: 100 μg/ml; for STAT3 activity_SEAP expression(%) (average ± deviation): sample 100 μg/ml 1 h, then IL-6 5 ng/ml 24 h, negative control = 100
Description: HEK-Blue™ IL-6 cells were used to confirm STAT3 activity by STAT3-induced SEAP (secreted embryonic alkaline phosphatase) expression. In DMEM (Hyclone, Thermo Scientific) medium to which 10% Fetal Bovine Serum was added, HEK-Blue™ IL-6 cells were cultured at a concentration of 1×10^5 cells/ml, and maintained in a 5% CO2 humidified incubator at 37° C. The cultured HEK-Blue™ IL-6 cells were inoculated by 1×10^5 cells/ml. Then, the culture solution was treated with a glycerol derivative compounds of the type shown in Table 4 below for 1 hour and then IL-6 (5 ng/ml) was further incubated for 24 hours for STAT3 activity. Thereafter, the culture supernatant was collected for each well and centrifuged (at 3000 rpm, 5 minutes) to recover the supernatant. The SEAP expression level in the recovered supernatant was mixed with Quanti blue reagent and the supernatant at a ratio of 1:10 and left at 37° C. for about 30 minutes. Then, the SEAP concentration was confirmed at 650 nm wavelength using a spectrophotometer, and the results (STAT3 activity inhibitory ability) thereof are shown in Table 4 and FIG. 3 below.

STAT6 = experiment: IL-4-induced STAT6 activity, pGL4-STAT6 luciferase reporter in A549 cells; format: cell-based; settings: sample 100 μg/ml 1 h, then IL-4 (2 ng/ml) 20 h, Table 9
Description: In DMEM (Dulbecco Modified Eagle Medium, Hyclone, Thermo Scientific) medium to which 10% Fetal Bovine Serum was added, A549 cells were subcultured at a concentration of 1×10^5 cells/ml, and culture was conducted in a 5% CO2 humidified incubator at 37° C. The cultured A549 cells were inoculated into a 48 well plate by 1×10^5 cells/ml and stabilized for 18 hours. Thereafter, pGL4-STAT6 reporter vector containing a STAT6 binding promoter portion was mixed with Attractene to induce complex formation at room temperature for 15 minutes. This complex was treated with the cells and then further incubated for 24 hours. Thereafter, the culture solution was treated with a glycerol derivative compounds of the type shown in Table 9 and 10 below for 1 hour, and then IL-4 (2 ng/ml or 10 ng/ml) was further incubated for 20 hours for STAT6 activity. Thereafter, the culture supernatant was removed for each well, and the remaining cells were lysed with a cell lysis buffer, and then cell lysate was recovered. 90 μl of luciferase reagent was mixed with 10 μl of the recovered cell lysate, and the degree of fluorescence was confirmed using a luminometer. The results are shown in Table 9, Table 10, FIG. 9 and FIG. 10 below.

IL-6 = experiment: LPS-induced IL-6 secretion reduction in RAW264.7 cells (ELISA); format: cell-based, mouse; settings: sample 100 μg/ml 1 h, then LPS 1 μg/ml 24 h, Table 2
Description: In DMEM (Dulbecco Modified Eagle Medium, Hyclone, Thermo Scientific) medium to which 10% Fetal Bovine Serum was added, RAW264.7 cells, a mouse macrophage family, were suspended at a concentration of 1×10^5 cells/ml, and culture was conducted in a 5% CO2 humidified incubator at 37° C. The cultured RAW264.7 cells were inoculated into a 48 well plate by 5×10^4 cells/ml and stabilized for 15 hours. Then, the culture solution was treated with a glycerol derivative compounds of the type shown in Table 2 and 3 below for 1 hour and then was treated with 1 μg/ml of Lipopolysaccaride (LPS) of a cell stimulator, and subsequent further incubation was conducted for 24 hours. Thereafter 0.5 ml of the culture supernatant was collected for each well and centrifuged (at 3000 rpm, 5 minutes) to recover the supernatant. The IL-6 level in the recovered supernatant was measured according to the manual provided by the Mouse IL-6 ELISA set (BD Biosciences). The day before ELISA was carried out, the IL-6 capture antibody was diluted in phosphate buffered saline, coated on a microwell, and then stored at 4° C. overnight. Each well was washed three times with a buffer solution and then blocked with 2% Bovine Serum Albumin (BSA) for 1 hour at room temperature. After washing with buffer solution three times, […] of sample was dispensed into each well and left at room temperature for 2 hours. Detection antibody which was washed 3 times with washing buffer solution and diluted was dispensed into each well and allowed to react at room temperature for 1 hour and left at room temperature for 1 hour. Thereafter, the secondary HRP conjugated antibody was reacted at room temperature for 30 minutes, washed three times with a buffer solution, and treated with 50 μl of stop solution for each well, and then the optical density was measured at 450 nm with an ELISA microplate leader. The results of the IL-6 expression reduction rate (IL-6 concentration) are shown in Table 2, Table 3, FIG. 1 and FIG. 2 below.

CXCL8 (IL-8) = CXCL8 (IL-8) expression reduction in Gemcitabine-treated THP-1 cells (ELISA); format: cell-based, human; settings: THP-1 cells; for CXCL8 [IL-8] concentration (average ± deviation): sample 100 μg/ml 1 h, then Gemcitabine 2 μg/ml 24 h; for reduction of CXCL8 (IL-8) expression/secretion: Gemcitabine-treated, 100 μg/ml
Description: In RPMI (Hyclone, Thermo Scientific) medium to which 10% Fetal Bovine Serum was added, THP-1 cells, a human macrophage family, were suspended at a concentration of 1×10^5 cells/ml, and culture was conducted in a 5% CO2 humidified incubator at 37° C. The cultured THP-1 cells were inoculated into a 12 well plate by 1×10^6 cells/ml and stabilized for 30 minutes. Then, the culture solution was treated with a glycerol derivative compounds of the type shown in Table 6 below for 1 hour and then was treated with Gemcitabine (2 μg/ml) of a cell stimulator, and subsequent further incubation was conducted for 24 hours. Thereafter 1.5 ml of the culture supernatant was collected for each well and centrifuged (at 3000 rpm, 5 minutes) to recover the supernatant. The CXCL8 (IL-8) level in the recovered supernatant was measured according to the manual provided by the human IL-8 ELISA set (BD Biosciences). The day before ELISA was carried out, the IL-8 capture antibody was diluted in phosphate buffered saline, coated on a microwell, and then stored at 4° C. overnight. Each well was washed three times with a buffer solution and then blocked with 2% Bovine Serum Albumin (BSA) for 1 hour at room temperature. After washing with washing buffer solution three times, 100 μl of sample was dispensed into each well and left at room temperature for 2 hours. Detection antibody which was washed 3 times with washing buffer and diluted was dispensed into each well and allowed to react at room temperature for 1 hour and left at room temperature for 1 hour. Thereafter, the secondary HRP conjugated antibody was reacted at room temperature for 30 minutes, washed three times with a washing buffer, and treated with 50 μl of stop solution for each well, and then the optical density was measured at 450 nm with an ELISA microplate leader.

With CCCCC/C=C\C/C=C\CCCCCCCC(=O)OC(COC)COC(=O)CCCCCCCCCCCCCCC (stereo not shown) [EC_A13] the “Number of HL-60 cells migrated through Transwell” value (“Number” below) (HL-60 cells) was 8679.7 Cell Number, the “decrease of STAT3 activity compared to the IL-6 cytokine-treated group” value (from here on “decrease of STAT3 activity”) (STAT3) was “about 25%” and the “STAT3 activity_SEAP expression(%) (average ± deviation)” value (STAT3) was 167.2 ± 8.4%. The “STAT6 activity_Luciferase activity (average ± deviation)” value (STAT6) was 1150.2 ± 44.9, the “IL-6 concentration (average ± deviation)” value (IL-6) was 0.266 ± 0.024 µg/mL and the “CXCL8 [IL-8] concentration (average ± deviation)” value (“CXCL8 … (average ± deviation)” for short) (CXCL8 (IL-8)) was 96.6 ± 0.2 pg/µL.
With CCCCC/C=C\C/C=C\CCCCCCCC(=O)OC(COCCC)COC(=O)CCCCCCCCCCCCCCC (stereo not shown) [EC_A15] the “Number” value (HL-60 cells) was 28884.8 Cell Number, the “STAT3 activity_SEAP expression(%) (average ± deviation)” value (STAT3) was 232.0 ± 50.4% and the “STAT6 activity_Luciferase activity (average ± deviation)” value (STAT6) was 707.5 ± 51.3. The “IL-6 concentration (average ± deviation)” value (IL-6) was 0.125 ± 0.003 µg/mL, the “reduction of CXCL8 (IL-8) expression/secretion” value (CXCL8 (IL-8)) was “about 20%” and the “CXCL8 … (average ± deviation)” value (CXCL8 (IL-8)) was 73.8 ± 0.0 pg/µL.
For CCCCC/C=C\C/C=C\CCCCCCCC(=O)OC(COC(=O)CCCCCCCCCCCCCCC)COC(=O)c1ccccc1 (stereo not shown) [EC_A16], the “Number” value (HL-60 cells) was 26348.9 Cell Number, the “decrease of STAT3 activity” value (STAT3) was “about 25%” and the “STAT3 activity_SEAP expression(%) (average ± deviation)” value (STAT3) was 171.1 ± 17.5%. The “STAT6 activity_Luciferase activity (average ± deviation)” value (STAT6) was 964.5 ± 170.3, the “IL-6 concentration (average ± deviation)” value (IL-6) was 0.238 ± 0.008 µg/mL and the “CXCL8 … (average ± deviation)” value (CXCL8 (IL-8)) was 135.1 ± 2.3 pg/µL.
With CCCCC/C=C\C/C=C\CCCCCCCC(=O)OC(COC(=O)CCC)COC(=O)CCCCCCCCCCCCCCC (stereo not shown) [EC_A17] the “Number” value (HL-60 cells) was 30692.8 Cell Number, the “decrease of STAT3 activity” value (STAT3) was “about 25%” and the “STAT3 activity_SEAP expression(%) (average ± deviation)” value (STAT3) was 185.4 ± 19.3%. The “STAT6 activity_Luciferase activity (average ± deviation)” value (STAT6) was 476.2 ±113.4, the “IL-6 concentration (average ± deviation)” value (IL-6) was 0.154 ± 0.001 µg/mL and the “CXCL8 … (average ± deviation)” value (CXCL8 (IL-8)) was 110 ± 0.2 pg/µL.
In the case of CCCCC/C=C\C/C=C\CCCCCCCC(=O)OC(COC(=O)CCCC)COC(=O)CCCCCCCCCCCCCCC (stereo not shown) [EC_A18], the “Number” value (HL-60 cells) was 9891.6 Cell Number, the “decrease of STAT3 activity” value (STAT3) was “about 25%” and the “STAT3 activity_SEAP expression(%) (average ± deviation)” value (STAT3) was 166.2 ± 29.6%. The “STAT6 activity_Luciferase activity (average ± deviation)” value (STAT6) was 1189.2 ± 174.7, the “IL-6 concentration (average ± deviation)” value (IL-6) was 0.147 ± 0.003 µg/mL and the “reduction of CXCL8 (IL-8) expression/secretion” value (CXCL8 (IL-8)) was “about 20%”. The “CXCL8 … (average ± deviation)” value (CXCL8 (IL-8)) was 84.0 ± 1.8 pg/µL.
In the case of CCCCC/C=C\C/C=C\CCCCCCCC(=O)OC(COC(=O)CCCCCCCCCCCCCCC)COC(=O)C(C)C (stereo not shown) [EC_A19], the “Number” value (HL-60 cells) was 14882.8 Cell Number, the “STAT3 activity_SEAP expression(%) (average ± deviation)” value (STAT3) was 162.9 ± 33.2% and the “STAT6 activity_Luciferase activity (average ± deviation)” value (STAT6) was 898.7 ± 115.9. The “IL-6 concentration (average ± deviation)” value (IL-6) was 0.204 ± 0.014 µg/mL and the “CXCL8 … (average ± deviation)” value (CXCL8 (IL-8)) was 277.9 ± 3.1 pg/µL.
CCCCC/C=C\C/C=C\CCCCCCCC(=O)OC(COC(=O)CCCCCCCCCCCCCCC)COC(=O)C(C)(C)C (stereo not shown) [EC_A22] was tested, and the “Number” value (HL-60 cells) was 1181.1 Cell Number, the “decrease of STAT3 activity” value (STAT3) was “about 25%” and the “STAT3 activity_SEAP expression(%) (average ± deviation)” value (STAT3) was 169.5 ± 10.5%. The “STAT6 activity_Luciferase activity (average ± deviation)” value (STAT6) was 645.5 ± 111.4.
